Measured values published in US12479847B2 (DANA-FARBER CANCER INSTITUTE, INC., priority 2019, dated 2025).

Assays:
Assay in all cases: KINOMEscan (ScanMAX) kinase profiling
Format in all cases: binding
panel of 468 kinases [1] = molecular target: T1, panel of 468 kinases (Homo sapiens, UniProt P04626); conditions: ERBB2; 1 μM; read-out: % control
T1 construct: purchased KINOMEscan (ScanMAX) service

panel of 468 kinases [2] = molecular target: T2, panel of 468 kinases (Homo sapiens, UniProt Q9UF33); conditions: EPHA6; 1 μM; read-out: % control
T2 construct: purchased KINOMEscan (ScanMAX) service
T2 sequence (Q9UF33 23-1036): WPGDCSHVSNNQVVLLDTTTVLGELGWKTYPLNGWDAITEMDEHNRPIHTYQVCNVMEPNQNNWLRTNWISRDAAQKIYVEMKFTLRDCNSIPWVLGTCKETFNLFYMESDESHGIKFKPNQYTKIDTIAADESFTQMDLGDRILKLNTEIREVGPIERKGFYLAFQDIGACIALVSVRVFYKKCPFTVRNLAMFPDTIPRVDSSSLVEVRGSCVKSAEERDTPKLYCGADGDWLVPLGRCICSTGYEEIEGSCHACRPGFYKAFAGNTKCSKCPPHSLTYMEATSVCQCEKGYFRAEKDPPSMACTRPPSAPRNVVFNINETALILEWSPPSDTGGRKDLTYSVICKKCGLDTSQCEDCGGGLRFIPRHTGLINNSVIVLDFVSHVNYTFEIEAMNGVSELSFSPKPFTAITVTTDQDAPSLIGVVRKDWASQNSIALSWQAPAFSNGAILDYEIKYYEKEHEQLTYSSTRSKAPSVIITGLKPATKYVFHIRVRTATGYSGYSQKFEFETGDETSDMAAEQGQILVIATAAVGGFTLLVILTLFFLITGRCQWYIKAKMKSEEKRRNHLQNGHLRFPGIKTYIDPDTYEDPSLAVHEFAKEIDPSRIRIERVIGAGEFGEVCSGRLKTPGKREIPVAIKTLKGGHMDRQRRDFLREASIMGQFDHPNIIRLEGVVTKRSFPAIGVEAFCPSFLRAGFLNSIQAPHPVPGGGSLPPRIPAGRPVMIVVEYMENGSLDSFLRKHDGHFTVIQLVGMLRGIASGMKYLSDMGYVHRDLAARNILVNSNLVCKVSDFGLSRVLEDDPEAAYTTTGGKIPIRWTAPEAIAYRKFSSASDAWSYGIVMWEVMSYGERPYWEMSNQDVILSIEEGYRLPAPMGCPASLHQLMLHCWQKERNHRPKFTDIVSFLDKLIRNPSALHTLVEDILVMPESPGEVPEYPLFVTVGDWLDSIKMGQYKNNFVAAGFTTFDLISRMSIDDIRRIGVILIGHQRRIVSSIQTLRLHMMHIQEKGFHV

panel of 468 kinases [3] = molecular target: T3, panel of 468 kinases (Homo sapiens, UniProt P08581, M1250T); conditions: MET(M1250T); 1 μM; read-out: % control
T3 construct: purchased KINOMEscan (ScanMAX) service

panel of 468 kinases [4] = molecular target: T4, panel of 468 kinases (Homo sapiens, UniProt Q02750); conditions: MEK1; 1 μM; read-out: % control
T4 construct: purchased KINOMEscan (ScanMAX) service

panel of 468 kinases [5] = molecular target: T5, panel of 468 kinases (Homo sapiens, UniProt Q8NG66); conditions: NEK11; 1 μM; read-out: % control
T5 construct: purchased KINOMEscan (ScanMAX) service
T5 sequence (Q8NG66 1-645): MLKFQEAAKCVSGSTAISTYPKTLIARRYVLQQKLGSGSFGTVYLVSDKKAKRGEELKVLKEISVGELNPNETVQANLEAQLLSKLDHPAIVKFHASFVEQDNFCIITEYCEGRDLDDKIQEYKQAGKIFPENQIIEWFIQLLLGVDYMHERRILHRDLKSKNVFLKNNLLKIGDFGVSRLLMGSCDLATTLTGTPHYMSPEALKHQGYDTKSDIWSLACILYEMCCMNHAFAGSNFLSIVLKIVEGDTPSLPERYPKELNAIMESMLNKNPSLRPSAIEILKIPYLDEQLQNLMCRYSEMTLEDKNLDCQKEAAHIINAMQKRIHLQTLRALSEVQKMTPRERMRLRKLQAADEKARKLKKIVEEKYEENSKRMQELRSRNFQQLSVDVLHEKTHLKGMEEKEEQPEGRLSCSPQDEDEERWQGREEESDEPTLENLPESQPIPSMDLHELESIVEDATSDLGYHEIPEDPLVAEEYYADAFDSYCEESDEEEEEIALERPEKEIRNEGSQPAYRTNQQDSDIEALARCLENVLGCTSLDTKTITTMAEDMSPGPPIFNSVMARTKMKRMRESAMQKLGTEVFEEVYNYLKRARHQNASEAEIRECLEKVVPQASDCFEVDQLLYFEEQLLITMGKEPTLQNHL

panel of 468 kinases [6] = molecular target: T6, panel of 468 kinases (Homo sapiens, UniProt P10721, D816V); conditions: KIT(D816V); 1 μM; read-out: % control
T6 construct: purchased KINOMEscan (ScanMAX) service

panel of 468 kinases [7] = molecular target: T7, panel of 468 kinases (Homo sapiens, UniProt Q9NWZ3); conditions: IRAK4; 1 μM; read-out: % control
T7 construct: purchased KINOMEscan (ScanMAX) service
T7 sequence (Q9NWZ3 1-460): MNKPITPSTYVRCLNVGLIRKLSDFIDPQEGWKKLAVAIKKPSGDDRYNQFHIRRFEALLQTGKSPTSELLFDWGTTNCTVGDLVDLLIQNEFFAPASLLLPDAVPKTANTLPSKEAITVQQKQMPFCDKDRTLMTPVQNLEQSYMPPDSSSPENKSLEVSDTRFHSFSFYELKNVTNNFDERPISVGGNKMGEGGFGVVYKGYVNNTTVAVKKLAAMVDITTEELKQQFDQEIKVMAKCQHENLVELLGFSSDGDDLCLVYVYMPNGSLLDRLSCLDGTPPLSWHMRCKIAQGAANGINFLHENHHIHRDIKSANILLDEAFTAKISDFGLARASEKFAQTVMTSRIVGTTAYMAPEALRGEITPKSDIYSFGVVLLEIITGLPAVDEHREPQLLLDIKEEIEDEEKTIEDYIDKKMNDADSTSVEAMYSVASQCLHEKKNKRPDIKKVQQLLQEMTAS

T1 sequence (P04626 23-1255): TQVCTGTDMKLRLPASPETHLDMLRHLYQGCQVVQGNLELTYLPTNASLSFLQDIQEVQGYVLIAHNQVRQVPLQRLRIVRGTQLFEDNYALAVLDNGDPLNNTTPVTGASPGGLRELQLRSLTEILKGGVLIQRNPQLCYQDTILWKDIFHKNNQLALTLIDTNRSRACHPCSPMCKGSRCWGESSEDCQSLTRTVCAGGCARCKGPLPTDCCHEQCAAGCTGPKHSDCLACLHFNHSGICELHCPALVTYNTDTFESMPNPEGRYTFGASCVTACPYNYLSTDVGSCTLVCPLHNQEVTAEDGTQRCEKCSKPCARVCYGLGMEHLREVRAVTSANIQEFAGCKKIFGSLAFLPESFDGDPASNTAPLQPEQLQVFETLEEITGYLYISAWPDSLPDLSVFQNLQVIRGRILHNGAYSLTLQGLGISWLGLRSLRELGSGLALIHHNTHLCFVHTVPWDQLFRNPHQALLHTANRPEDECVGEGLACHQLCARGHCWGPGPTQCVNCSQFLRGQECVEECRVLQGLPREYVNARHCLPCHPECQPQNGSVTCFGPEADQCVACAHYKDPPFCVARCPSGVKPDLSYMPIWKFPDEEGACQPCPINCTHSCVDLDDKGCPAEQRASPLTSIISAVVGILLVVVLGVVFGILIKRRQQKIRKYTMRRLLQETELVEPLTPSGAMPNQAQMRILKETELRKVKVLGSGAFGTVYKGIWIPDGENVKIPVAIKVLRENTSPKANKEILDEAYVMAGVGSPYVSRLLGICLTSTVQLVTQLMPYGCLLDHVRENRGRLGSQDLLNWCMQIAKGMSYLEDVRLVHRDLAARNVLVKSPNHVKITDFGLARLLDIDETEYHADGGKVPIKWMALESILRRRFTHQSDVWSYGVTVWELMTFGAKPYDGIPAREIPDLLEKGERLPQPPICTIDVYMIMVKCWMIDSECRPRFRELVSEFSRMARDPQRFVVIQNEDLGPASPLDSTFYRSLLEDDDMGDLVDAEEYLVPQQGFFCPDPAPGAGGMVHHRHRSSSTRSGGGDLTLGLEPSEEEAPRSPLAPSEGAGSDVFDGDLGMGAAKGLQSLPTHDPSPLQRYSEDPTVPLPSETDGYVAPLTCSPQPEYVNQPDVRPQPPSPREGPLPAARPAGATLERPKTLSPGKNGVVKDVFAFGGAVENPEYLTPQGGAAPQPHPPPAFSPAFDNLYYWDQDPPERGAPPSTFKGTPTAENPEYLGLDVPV
T3 sequence (P08581 25-1390 M1250T): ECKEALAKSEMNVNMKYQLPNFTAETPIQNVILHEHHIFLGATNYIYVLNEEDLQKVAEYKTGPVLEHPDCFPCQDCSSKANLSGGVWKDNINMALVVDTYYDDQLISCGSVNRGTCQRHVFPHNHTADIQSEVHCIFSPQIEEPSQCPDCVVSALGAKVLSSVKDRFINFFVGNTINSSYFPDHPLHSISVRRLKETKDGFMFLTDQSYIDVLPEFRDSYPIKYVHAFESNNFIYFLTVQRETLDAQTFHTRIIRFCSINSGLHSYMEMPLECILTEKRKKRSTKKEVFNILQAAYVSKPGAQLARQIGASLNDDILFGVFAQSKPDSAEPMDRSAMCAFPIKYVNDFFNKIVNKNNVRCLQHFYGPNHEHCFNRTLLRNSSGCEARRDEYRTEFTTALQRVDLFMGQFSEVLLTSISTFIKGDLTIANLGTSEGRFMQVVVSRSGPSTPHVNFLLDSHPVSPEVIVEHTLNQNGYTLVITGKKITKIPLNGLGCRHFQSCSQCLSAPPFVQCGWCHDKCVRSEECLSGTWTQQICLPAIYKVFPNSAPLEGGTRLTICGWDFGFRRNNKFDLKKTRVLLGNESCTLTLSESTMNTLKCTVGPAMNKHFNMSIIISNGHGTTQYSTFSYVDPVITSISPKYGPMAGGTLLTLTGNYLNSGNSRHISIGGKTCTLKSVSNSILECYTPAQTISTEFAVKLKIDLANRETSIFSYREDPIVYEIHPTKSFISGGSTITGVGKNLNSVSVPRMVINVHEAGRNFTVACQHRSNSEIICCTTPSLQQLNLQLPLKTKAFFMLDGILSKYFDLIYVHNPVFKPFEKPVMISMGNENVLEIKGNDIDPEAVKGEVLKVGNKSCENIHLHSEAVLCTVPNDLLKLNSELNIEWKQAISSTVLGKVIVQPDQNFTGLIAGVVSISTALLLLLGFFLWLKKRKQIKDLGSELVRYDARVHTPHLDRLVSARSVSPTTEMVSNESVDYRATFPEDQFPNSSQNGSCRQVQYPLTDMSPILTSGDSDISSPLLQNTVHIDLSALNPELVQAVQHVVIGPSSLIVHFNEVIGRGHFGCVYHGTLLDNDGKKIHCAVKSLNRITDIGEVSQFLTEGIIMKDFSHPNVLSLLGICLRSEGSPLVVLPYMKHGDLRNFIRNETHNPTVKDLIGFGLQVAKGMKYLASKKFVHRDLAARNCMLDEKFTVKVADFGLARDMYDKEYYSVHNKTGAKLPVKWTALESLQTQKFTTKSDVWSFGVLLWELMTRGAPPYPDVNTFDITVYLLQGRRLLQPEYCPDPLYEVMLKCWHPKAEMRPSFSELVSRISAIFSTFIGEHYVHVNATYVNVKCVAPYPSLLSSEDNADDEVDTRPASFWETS
T4 sequence (Q02750 whole entry): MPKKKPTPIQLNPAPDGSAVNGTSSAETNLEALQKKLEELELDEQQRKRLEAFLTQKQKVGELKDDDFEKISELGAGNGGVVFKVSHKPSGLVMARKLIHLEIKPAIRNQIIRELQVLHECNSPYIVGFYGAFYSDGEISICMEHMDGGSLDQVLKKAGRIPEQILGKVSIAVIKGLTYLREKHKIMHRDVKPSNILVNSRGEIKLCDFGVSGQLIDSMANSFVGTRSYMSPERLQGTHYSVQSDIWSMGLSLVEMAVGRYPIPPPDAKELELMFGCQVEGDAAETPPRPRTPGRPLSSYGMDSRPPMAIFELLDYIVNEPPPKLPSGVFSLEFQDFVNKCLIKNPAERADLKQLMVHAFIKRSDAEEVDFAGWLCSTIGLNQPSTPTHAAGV
T6 sequence (P10721 26-976 D816V): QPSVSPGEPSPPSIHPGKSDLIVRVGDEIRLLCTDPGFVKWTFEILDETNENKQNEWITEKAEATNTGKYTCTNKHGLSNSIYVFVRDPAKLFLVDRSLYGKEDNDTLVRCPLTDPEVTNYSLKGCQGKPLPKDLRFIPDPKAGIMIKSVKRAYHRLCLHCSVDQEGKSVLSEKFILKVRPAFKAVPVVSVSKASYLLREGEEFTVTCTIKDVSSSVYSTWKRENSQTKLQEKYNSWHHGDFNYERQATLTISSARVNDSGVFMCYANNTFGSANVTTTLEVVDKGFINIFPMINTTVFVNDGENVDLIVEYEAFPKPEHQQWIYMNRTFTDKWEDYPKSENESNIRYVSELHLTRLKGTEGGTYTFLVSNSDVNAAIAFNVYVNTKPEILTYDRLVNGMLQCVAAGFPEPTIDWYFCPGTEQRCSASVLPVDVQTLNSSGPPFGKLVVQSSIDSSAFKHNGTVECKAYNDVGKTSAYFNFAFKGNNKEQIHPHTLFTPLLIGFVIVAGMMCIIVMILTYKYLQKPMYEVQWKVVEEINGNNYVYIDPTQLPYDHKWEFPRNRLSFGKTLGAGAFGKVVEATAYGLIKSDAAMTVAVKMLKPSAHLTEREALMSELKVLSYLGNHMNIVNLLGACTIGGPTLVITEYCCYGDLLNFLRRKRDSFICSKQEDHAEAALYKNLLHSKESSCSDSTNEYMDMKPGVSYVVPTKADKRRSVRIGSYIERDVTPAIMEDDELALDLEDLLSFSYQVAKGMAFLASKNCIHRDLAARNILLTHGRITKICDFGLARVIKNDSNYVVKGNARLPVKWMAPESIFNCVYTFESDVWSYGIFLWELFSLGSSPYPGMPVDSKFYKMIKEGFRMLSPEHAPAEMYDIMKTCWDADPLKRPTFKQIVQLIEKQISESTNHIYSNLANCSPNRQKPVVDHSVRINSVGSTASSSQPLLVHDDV

| SMILES | remaining binding at 1 µM (panel of 468 kinases [1]) [%] | remaining binding at 1 µM (panel of 468 kinases [2]) [%] | remaining binding at 1 µM (panel of 468 kinases [3]) [%] | remaining binding at 1 µM (panel of 468 kinases [4]) [%] | remaining binding at 1 µM (panel of 468 kinases [5]) [%] | remaining binding at 1 µM (panel of 468 kinases [6]) [%] | remaining binding at 1 µM (panel of 468 kinases [7]) [%] |
| --- | --- | --- | --- | --- | --- | --- | --- |
| CNc1nc(Nc2ccc(C(=O)N3CCC(N4CCOCC4)CC3)c3c2OCO3)nc2[nH]cc(Cl)c12 [Compound 75, (7-((5-chloro-4-(methylamino)-7H-pyrrolo[2,3-d]pyrimidin-2-yl)amino)benzo[d][1,3]dioxol-4-yl)(4-morpholinopiperidin-1-yl)methanone] | 85 | 100 | 100 | 98 | 100 | 98 | 82 |
| CNc1nc(Nc2ccc(S(=O)(=O)N3CCC(N4CCOCC4)CC3)cc2OC)nc2[nH]cc(Cl)c12 [Compound 12, 5-chloro-N2-(2-methoxy-4-((4-morpholinopiperidin-1-yl)sulfonyl)phenyl)-N4-methyl-7H-pyrrolo[2,3-d]pyrimidine-2,4-diamine] | 80 | 100 | 100 | 99 | 96 | 100 | 95 |
| CNc1nc(Nc2ccc(P3(=O)CCN(C4CCOCC4)CC3)cc2OC)nc2[nH]cc(Cl)c12 [Compound 77, 4-(4-((5-chloro-4-(methylamino)-7H-pyrrolo[2,3-d]pyrimidin-2-yl)amino)-3-methoxyphenyl)-1-(tetrahydro-2H-pyran-4-yl)-1,4-azaphosphinane 4-oxide] | 99 | 100 | 100 | 96 | 100 | 100 | 98 |
